Reference: patent US20100098746A1, “COMPOSITIONS AND METHODS FOR TREATING PERIODONTAL DISEASE COMPRISING CLONIDINE, SULINDAC AND/OR FLUOCINOLONE” (Warsaw Orthopedic, Inc., priority 2008, published 2010)

What was measured:
[1] = tested on: mechanical allodynia, Bennett Model; assay: Rat chronic constriction injury model, von Frey test of mechanical allodynia (sulindac); assay type: in vivo, Wistar rat; settings: intraperitoneally at 0.4 mg/kg/day
Protocol: (§1) The efficacy of a 5 Month Sulindac/Polymer Drug Depot in the Rat Chronic Constriction Injury Model was evaluated. The animal model was the Bennett Model (Wistar rat). The purpose: To determine whether a 5 month polymer sulindac-eluting depot can improve pain associated behavioral responses in a rat model of neuropathic pain.
(§2) Experimental Design: Four loose chromic gut ligatures, 1 mm apart, were tied around the common sciatic nerve at mid-thigh. Each animal received treatment of test or control article—according to the dosing described in Table 10.
(§3) To date, the present study was conducted for a period of 57 days and employed the following two tests: (1) the Hargreaves test on days 7, 14, 21, 28, 35, 42, 49, and 56; and (2) the von Frey test on days 8, 15, 22, 29, 36, 43, 50, and 57.

[2] = tested on: thermal hyperalgesia, Bennett Model; assay: Rat chronic constriction injury model, Hargreaves test of thermal hyperalgesia (sulindac); assay type: in vivo, Wistar rat; settings: intraperitoneally at 0.4 mg/kg/day
Protocol: as §1, §2, §3

murine RAW NO+ cell line = settings: for inhibitory effects on osteoclast differentiation and resorption: clonidine tested at 100, 10, 1, 0.1 μM, sulindac at 140, 70, 35, 17.5, 8.75 μM, RANK L 30 ng/ml; for lowest inhibitory concentration: osteoclast differentiation and resorption
Protocol: The purpose of this set of experiments was to narrow the number of periodontal candidates by determining the lowest dose of the drug that inhibits or blocks osteoclast differentiation and/or resorption.
Cell culture complete media was prepared by adding 10% FBS to high glucose DMEM. • 2. A nitric oxide-containing murine RAW NO+ cell line, f frozen in DMSO-containing medium under liquid nitrogen, was used for these assays. • 3. Cells were thawed in a 37° C. water bath and resuspended in complete media (see #1 above). • 4. The cells were plated in a 175 cm^2 polystyrene, white top, non-adherent culture flask at a density of 1×10^4 cells/cm^2 and allowed to settle overnight (Day-1, Table G). • 5. The media was changed approximately 24 hours after the initial plating (Day 0, Table G). • 6. After approximately two days of proliferation, the cells were harvested with a cell scraper, collected in a 50 mL conical tube and centrifuged at 1000 rpm to pellet the cells. • 7. The cell pellets were resuspended in 4 mL complete media, counted with a hemocytometer and plated at a density of 0.125×10^4 cells/0.25 ml/well in a 16 well osteologic assay slide (Day 1, Table G). • 8. The cells were allowed to adhere for 24 hours, the media was removed and fresh differentiation media was prepared that contained complete media+RANK L (30 ng/ml; Pepro Tech #315-11)+/−drug (Day 2, Table G). […] Step 8 was repeated on days 5 and 7 (Table G). • 10. On day 9 the plates were harvested by removing the media, rinsing with dH2O and treated with bleach for 7 minutes. • 11. The bleach was disposed of in the drug waste container and the wells and gaskets were removed from the slide. • 12. The plates were rinsed with H2O 5 times, dried and analyzed for matrix degradation as described below
The clonidine concentrations tested were 100 μM, 10 μM, 1 μM, 0.1 μM and the sulindac concentrations tested were 140 μM, 70 μM, 35 μM, 17.5 μM, and 8.75 μM.

[3] = tested on: neuropathic pain, CCI model; assay: 2-month chronic constriction injury (CCI) model of neuropathic pain (fluocinolone), thermal paw withdrawal latency and mechanical threshold; assay type: in vivo
Protocol: A 2-month chronic constriction injury (CCI) model of neuropathic pain was used to evaluate different formulations of a corticosteroid, fluocinolone, encapsulated in bioerodable polymers compared to fluocinolone given subcutaneously (SC). Different formulations as provided in Table B below were evaluated for reducing pain-associated behaviors: Thermal paw withdrawal latency was evaluated at baseline 7, 14, 21, 28, 35, 42, 49, and 56 days post-operatively, while mechanical threshold was evaluated at 8, 15, 22, 29, 36, 43, 50, and 57 days post-operatively. […] The pain of periodontal disease is due to the inflammation. […] Mechanical allodynia was measured using von Frey monofilaments (Stoelting, Wood Dale, Ill.) with varying stiffness (2.0-15.0 g) on Days 1, 8, 15, 22, 29, 36, 43, 50 and 57 as described previously. […] The 50% paw withdrawal threshold response was determined by a sequential increasing and/or decreasing of the stimulus strength (the “up-down method” of Dixon). […] The 50% paw withdrawal threshold was calculated using the formula: 10 (Xf+kd)/10,000, where Xf is the final von Frey filament used (log units), k is a value that analyzes the response pattern (taken from the table published by Chaplan et al.), and d is the mean difference between stimuli (log units). The mean and standard error of the mean (SEM) were determined for each treatment group.

[4] = tested on: thermal hyperalgesia, Bennett Model; settings: subcutaneously at 0.02 mg/kg/day
Protocol: as §1, with “five” for “5”, “Clonidine/Polymer” for “Sulindac/Polymer”, “clonidine-eluting” for “sulindac-eluting”, “pain with an inflammatory component.” for “pain.”
(§4) Experimental Design: Four loose chromic gut ligatures, 1 mm apart, were tied around the common sciatic nerve at mid-thigh. Each animal received treatment of test or control article—according to the dosing described in Table 5.
(§5) The present study was conducted for a period of 64 days and employed the following two tests: (1) the Hargreaves test; and (2) the von Frey test. The Hargreaves Tests of Thermal Hyperalgesia were conducted on days 7, 14, 21, 28, 35, 42, 49, 56 and 63. The von Frey monofilament test of mechanical allodynia (performed the day following Thermal testing) were conducted on days-8, 15, 22, 29, 36, 43, 50, 57 and 64.

[5] = tested on: mechanical allodynia, Bennett Model; settings: subcutaneously at 0.02 mg/kg/day
Protocol: as §1, with “five” for “5”, “Clonidine/Polymer” for “Sulindac/Polymer”, “clonidine-eluting” for “sulindac-eluting”, “pain with an inflammatory component.” for “pain.”
as §4, §5

[6] = tested on: inflammation induced in minipigs; settings: high dose clonidine (150 μg), injected; days 1, 3 and 4 post-surgery
Text: In a separate experiment, inflammation was induced in minipigs and the minipigs were given clonidine, bupivacaine, or morphine. The surgical site was reviewed for inflammation while the minipigs were anesthesized and on day 4. Scoring of inflammation was reviewed in the area of incision for redness with the following scores: 0—no redness; 1—slightly red limited to area of incision; 2—massive spread redness and swelling with the following scores 0—no swelling; 1—slightly swelling; 3—massive swelling. Redness and swelling were summed up so the minimum score is 0 and maximum score is 4. […] The low dose clonidine given was 75 μg.

Compound	pain behavioral response, mechanical allodynia, compared to unloaded polymer depots (85/15 PLGA Control) [1]	pain behavioral response, thermal hyperalgesia, compared to unloaded polymer depot (85/15 PLGA Control) [2]	inhibitory effects on osteoclast differentiation and resorption (murine RAW NO+ cell line)	lowest inhibitory concentration (murine RAW NO+ cell line) [µM]	pain threshold [3]	pain behavioral response, thermal hyperalgesia, compared to unloaded polymer depots [4]	pain behavioral response (percentage of baseline), thermal hyperalgesia ([4]; unloaded polymer depots 45%) [%]	pain behavioral response, mechanical allodynia, compared to unloaded polymer depots [5]	inflammation score (redness + swelling, 0 to 4) [6]	osteoclast differentiation and bone resorption compared to RANK only treated control wells (murine RAW NO+ cell line; clonidine at 100 μM and 10 μM)
CC1=C(CC(=O)O)c2cc(F)ccc2/C1=C\c1ccc([S+](C)[O-])cc1 (stereo not drawn) [sulindac]	reduced the behavioral response	consistently reduced the behavioral response	significant inhibitory effects	140.3						
CC1(C)O[C@@H]2C[C@H]3[C@@H]4C[C@H](F)C5=CC(=O)C=C[C@]5(C)[C@@]4(F)[C@@H](O)C[C@]3(C)[C@]2(C(=O)CO)O1 [fluocinolone, 6α-,9α-Difluoro-16 α-hydroxyprednisolone 16,17-acetonide]					reduced pain threshold					
Clc1cccc(Cl)c1N=C1NCCN1 [clonidine, 2,6-dichloro-N-2-imidazolidinyldenebenzenamine]			significant inhibitory effects	10		consistently reduced the behavioral response	58	reduced the behavioral response	very low	significantly decreased
